The values below come from the RepoRT retention time repository (doi:10.1021/acs.analchem.2c02893).

A short description of this data set: RP, Thermo Scientific Acclaim RSLC 120 C18, 100 × 2.1 mm, 2.2 µm, 30 °C, 0.2 mL/min, estimated dead time 1.1 min; A: 90% water + 10% methanol + 0.01% formic acid + 5 mM ammonium formate, pH 3.61; B: methanol + 0.01% formic acid + 5 mM ammonium formate, pH 3.61; gradient (min/%B) 0/1 1/1 2/39 13/99.9 15/99.9 15.1/1 20.1/1. The note with it: stereoisomer not certain.
For the compound `CC(C)N(C(=O)CS(=O)(=O)O)c1ccc(F)cc1` [Flufenacet-ESA], the LC retention time was 5.71 min.
As for `CC(C)N(C(=O)C(=O)O)c1ccc(F)cc1` [Flufenacet-OXA], the LC retention time was 5.49 min.
Under `CC(C)N(C(=O)COc1nnc(C(F)(F)F)s1)c1ccc(F)cc1` [Flufenacet] stands 10.1 min; under `O=C(NC(=O)c1c(F)cccc1F)Nc1ccc(Oc2ccc(C(F)(F)F)cc2Cl)cc1F` [Flufenoxuron], 12.9 min; under `Fc1cccc(F)c1-c1nnc(-c2ccccc2Cl)nn1` [Flufenzine (Diflovidazin)], 10.8 min.
The figure for `CCOC(=O)c1ncn2c1CN(C)C(=O)c1cc(F)ccc1-2` [Flumazenil] is 6.04 min; for `CC1CC2C3CC(F)C4=CC(=O)C=CC4(C)C3(F)C(O)CC2(C)C1(O)C(=O)CO` (configuration not stated) [Flumethasone] it is 8.28 min.
Under `Cc1ccn2nc(S(=O)(=O)Nc3c(F)cccc3F)nc2n1` [Flumetsulam] stands 4.83 min; under `C#CCN1C(=O)COc2cc(F)c(N3C(=O)C4=C(CCCC4)C3=O)cc21` [Flumioxazin], 8.73 min; under `CC1(C)OC2CC3C4CC(F)C5=CC(=O)C=CC5(C)C4C(O)CC3(C)C2(C(=O)CO)O1` (configuration not stated) [Flunisolide], 9.01 min.
For the compound `Nc1ccc2c(c1)C(c1ccccc1F)=NCC(=O)N2` [Flunitrazepam-7-Amino-desmethyl], the LC retention time was 4.62 min.
Under `CN1C(=O)CN=C(c2ccccc2F)c2cc(N)ccc21` [Flunitrazepam- 7-Amino] stands 5.41 min.
Under `O=C1CN=C(c2ccccc2F)c2cc([N+](=O)[O-])ccc2N1` [Flunitrazepam-N-Desmethyl (Norflunitrazepam)] stands 7.35 min.
Turning to `CN1C(=O)CN=C(c2ccccc2F)c2cc([N+](=O)[O-])ccc21` [Flunitrazepam], the LC retention time is 7.83 min.
Under `Cc1c(Nc2ncccc2C(=O)O)cccc1C(F)(F)F` [Flunixin] stands 9.09 min; under `CC1(C)OC2CC3C4CC(F)C5=CC(=O)C=CC5(C)C4(F)C(O)CC3(C)C2(C(=O)CO)O1` (configuration not stated) [Fluocinolone acetonide], 8.73 min; under `CN(C)C(=O)Nc1cccc(C(F)(F)F)c1` [Fluometuron], 7.85 min.
Under `CCOC(=O)COC(=O)c1cc(Oc2ccc(C(F)(F)F)cc2Cl)ccc1[N+](=O)[O-]` [Fluoroglycofen-ethyl] stands 11.7 min; under `CC(=O)C1(O)CCC2C3CC(C)C4=CC(=O)C=CC4(C)C3(F)C(O)CC21C` (configuration not stated) [Fluorometholone], 8.91 min; under `CON=C(C1=NOCCO1)c1ccccc1Oc1ncnc(Oc2ccccc2Cl)c1F` [Fluoxastrobin], 9.95 min.
With `NCCC(Oc1ccc(C(F)(F)F)cc1)c1ccccc1` (configuration not stated) [Fluoxetine-nor], the LC retention time is 8.58 min.
The figure for `CNCCC(Oc1ccc(C(F)(F)F)cc1)c1ccccc1` (configuration not stated) [Fluoxetine] is 8.6 min; for `OCCN1CCN(CCC=C2c3ccccc3Sc3ccc(C(F)(F)F)cc32)CC1` [Flupentixol] it is 10.2 min.
The figure for `OCCN1CCN(CCCN2c3ccccc3Sc3ccc(C(F)(F)F)cc32)CC1` [Fluphenazine] is 9.93 min; for `CCOC(=O)Nc1ccc(NCc2ccc(F)cc2)nc1N` [Flupirtine] it is 7.09 min; for `O=c1c2cc(F)ccc2nc(-n2cncn2)n1-c1ccc(Cl)cc1Cl` [Fluquinconazole] it is 10.1 min.
The figure for `O=C1CN=C(c2ccccc2F)c2cc(Cl)ccc2N1CCO` [Flurazepam-2-OH-Ethyl] is 8.19 min.
In the case of `O=C1CN=C(c2ccccc2F)c2cc(Cl)ccc2N1` [Flurazepam-Desalkyl], the LC retention time is 8.74 min.
Turning to `CCN(CC)CCN1C(=O)CN=C(c2ccccc2F)c2cc(Cl)ccc21` [Flurazepam], the LC retention time is 6.61 min.
Under `Cn1cc(-c2ccccc2)c(=O)c(-c2cccc(C(F)(F)F)c2)c1` [Fluridone] stands 8.82 min; under `O=C1C(Cl)C(CCl)CN1c1cccc(C(F)(F)F)c1` (configuration not stated) [Flurochloridone], 9.84 min.
On to `Nc1c(Cl)c(F)nc(OCC(=O)O)c1Cl` [Fluroxypyr], for which the LC retention time is 5.43 min.
Turning to `CC(C)C(O)(c1ccc(OC(F)(F)F)cc1)c1cncnc1` (configuration not stated) [Flurprimidol], the LC retention time was 9.62 min.
On to `CNC1=C(c2cccc(C(F)(F)F)c2)C(=O)C(c2ccccc2)O1` (configuration not stated) [Flurtamone], for which the LC retention time was 9.14 min.
Under `C[Si](Cn1cncn1)(c1ccc(F)cc1)c1ccc(F)cc1` [Flusilazole] stands 10.5 min.
Under `O=C1NCN(c2ccccc2)C12CCN(CCCC(c1ccc(F)cc1)c1ccc(F)cc1)CC2` [Fluspirilen] stands 9.19 min.
Under `CC(C)C(=O)Nc1ccc([N+](=O)[O-])c(C(F)(F)F)c1` [Flutamide] stands 11.2 min; under `CCC(=O)OC1(C(=O)SCF)C(C)CC2C3CC(F)C4=CC(=O)C=CC4(C)C3(F)C(O)CC21C` (configuration not stated) [Fluticasone propionate], 10.7 min.
Take `CC(C)Oc1cccc(NC(=O)c2ccccc2C(F)(F)F)c1` [Flutolanil]: the LC retention time is 9.52 min.
The figure for `OC(Cn1cncn1)(c1ccc(F)cc1)c1ccccc1F` (configuration not stated) [Flutriafol] is 8.12 min.
The figure for `CC(C)C(Nc1ccc(C(F)(F)F)cc1Cl)C(=O)OC(C#N)c1cccc(Oc2ccccc2)c1` (configuration not stated) [Fluvalinate (tau-)] is 13.5 min.
The figure for `CC(C)n1c(C=CC(O)CC(O)CC(=O)O)c(-c2ccc(F)cc2)c2ccccc21` (configuration not stated) [Fluvastatin] is 10.9 min.
Turning to `COCCCCC(=NOCCN)c1ccc(C(F)(F)F)cc1` [Fluvoxamine], the LC retention time was 8.28 min.
Under `CS(=O)(=O)NC(=O)c1cc(Oc2ccc(C(F)(F)F)cc2Cl)ccc1[N+](=O)[O-]` [Fomesafen] stands 9.01 min; under `COc1cc(OC)nc(NC(=O)NS(=O)(=O)c2cc(NC=O)ccc2C(=O)N(C)C)n1` [Foramsulfuron], 7.54 min; under `O=C(Nc1ccccc1)Nc1ccnc(Cl)c1` [Forchlorfenuron], 8.53 min.
The figure for `CNC(=O)Oc1cccc(N=CN(C)C)c1` [Formetanate] is 3.14 min.
Under `COc1ccc(CC(C)NCC(O)c2ccc(O)c(NC=O)c2)cc1` (configuration not stated) [Formoterol] stands 4.79 min; under `CCC(=O)OC(OP(=O)(CCCCc1ccccc1)CC(=O)N1CC(C2CCCCC2)CC1C(=O)O)C(C)C` (configuration not stated) [Fosinopril], 12.4 min; under `CCOP(=O)(SC(C)CC)N1CCSC1=O` (configuration not stated) [Fosthiazate], 7.73 min.
In the case of `c1coc(-c2nc3ccccc3[nH]2)c1` [Fuberidazole], the LC retention time is 6.48 min.
The figure for `COC(=O)C(C)N(C(=O)c1ccco1)c1c(C)cccc1C` (configuration not stated) [Furalaxyl] is 8.99 min; for `CCCCOC(=O)N(C)SN(C)C(=O)Oc1cccc2c1OC(C)(C)C2` [Furathiocarb] it is 12.1 min; for `O=C1OCCN1N=Cc1ccc([N+](=O)[O-])o1` [Furazolidone] it is 4.19 min.
For the compound `CC1(C)OC(c2ccco2)CN1C(=O)C(Cl)Cl` (configuration not stated) [Furilazole], the LC retention time was 7.92 min.
The figure for `O=C(O)CCCO` [GHB Fragm 87] is 1.95 min.
The figure for `NCC1(CC(=O)O)CCCCC1` [Gabapentin] is 3.78 min; for `COc1ccc2c3c1OC1CC(O)C=CC31CCN(C)C2` (configuration not stated) [Galantamine] it is 2.99 min.
The figure for `CC1COCc2cc3c(cc21)C(C)(C)C(C)C3(C)C` (configuration not stated) [Galaxolide] is 13.9 min.
As for `CC1COC(=O)c2cc3c(cc21)C(C)(C)C(C)C3(C)C` (configuration not stated) [Galaxolidone], the LC retention time was 12 min.
Under `COc1ccc(CCN(C)CCCC(C#N)(c2cc(OC)c(OC)c(OC)c2)C(C)C)cc1OC` (configuration not stated) [Gallopamil] stands 7.19 min; under `CCCc1nn(C)c2c(=O)[nH]c(-c3cc(C(C)=O)ccc3OCC)nc12` [Gendenafil], 9.81 min.
Under `O=c1c(-c2ccc(O)cc2)coc2cc(O)cc(O)c12` [Genistein] stands 7.7 min; under `CNC(C)C1CCC(N)C(OC2C(N)CC(N)C(OC3OCC(C)(O)C(NC)C3O)C2O)O1` (configuration not stated) [Gentamycin], 11.6 min.
Under `C#CC1(O)C=CC2C3CCC4=CC(=O)CCC4C3CCC21CC` (configuration not stated) [Gestoden] stands 9.46 min; under `C=C1CC23CC1(O)CCC2C12C=CC(O)C(C)(C(=O)O1)C2C3C(=O)O` (configuration not stated) [Gibberellic acid], 4.91 min.
Regarding `O=C(OCC(O)CO)c1ccccc1Nc1ccnc2cc(Cl)ccc12` (configuration not stated) [Glaphenine], the LC retention time is 6.63 min.
The figure for `COc1ccc(Cl)cc1C(=O)NCCc1ccc(S(=O)(=O)NC(=O)NC2CCCCC2)cc1` [Glibenclamide] is 9.98 min; for `Cc1ccc(S(=O)(=O)NC(=O)NC2C3CCC(C)(C2O)C3(C)C)cc1` (configuration not stated) [Glibornuride] it is 9.79 min.
The figure for `CCC1=C(C)CN(C(=O)NCCc2ccc(S(=O)(=O)NC(=O)NC3CCC(C)CC3)cc2)C1=O` (configuration not stated) [Glimepiride] is 10.7 min.
In the case of `Cc1cnc(C(=O)NCCc2ccc(S(=O)(=O)NC(=O)NC3CCCCC3)cc2)cn1` [Glipizide], the LC retention time was 8.11 min.
Under `CP(=O)(O)CCC(N)C(=O)O` (configuration not stated) [Glufosinate] stands 1.44 min.
